# Experiments:
# [1] = target: T1, mouse iNOS (Mus musculus, UniProt P29477); test: NOS inhibition, oxyhemoglobin (hemoglobin capture) test, recombinant iNOS; format: biochemical; conditions: dipeptide-like series, recombinant enzyme, 20 µM arginine, triplicate, NI = <50% inhibition at 100 μM
# T1 construct: Full-length recombinant rat nNOS, mouse iNOS, bovine eNOS; made in house; host or cells: Escherichia coli
# T1 sequence (P29477 1-1144): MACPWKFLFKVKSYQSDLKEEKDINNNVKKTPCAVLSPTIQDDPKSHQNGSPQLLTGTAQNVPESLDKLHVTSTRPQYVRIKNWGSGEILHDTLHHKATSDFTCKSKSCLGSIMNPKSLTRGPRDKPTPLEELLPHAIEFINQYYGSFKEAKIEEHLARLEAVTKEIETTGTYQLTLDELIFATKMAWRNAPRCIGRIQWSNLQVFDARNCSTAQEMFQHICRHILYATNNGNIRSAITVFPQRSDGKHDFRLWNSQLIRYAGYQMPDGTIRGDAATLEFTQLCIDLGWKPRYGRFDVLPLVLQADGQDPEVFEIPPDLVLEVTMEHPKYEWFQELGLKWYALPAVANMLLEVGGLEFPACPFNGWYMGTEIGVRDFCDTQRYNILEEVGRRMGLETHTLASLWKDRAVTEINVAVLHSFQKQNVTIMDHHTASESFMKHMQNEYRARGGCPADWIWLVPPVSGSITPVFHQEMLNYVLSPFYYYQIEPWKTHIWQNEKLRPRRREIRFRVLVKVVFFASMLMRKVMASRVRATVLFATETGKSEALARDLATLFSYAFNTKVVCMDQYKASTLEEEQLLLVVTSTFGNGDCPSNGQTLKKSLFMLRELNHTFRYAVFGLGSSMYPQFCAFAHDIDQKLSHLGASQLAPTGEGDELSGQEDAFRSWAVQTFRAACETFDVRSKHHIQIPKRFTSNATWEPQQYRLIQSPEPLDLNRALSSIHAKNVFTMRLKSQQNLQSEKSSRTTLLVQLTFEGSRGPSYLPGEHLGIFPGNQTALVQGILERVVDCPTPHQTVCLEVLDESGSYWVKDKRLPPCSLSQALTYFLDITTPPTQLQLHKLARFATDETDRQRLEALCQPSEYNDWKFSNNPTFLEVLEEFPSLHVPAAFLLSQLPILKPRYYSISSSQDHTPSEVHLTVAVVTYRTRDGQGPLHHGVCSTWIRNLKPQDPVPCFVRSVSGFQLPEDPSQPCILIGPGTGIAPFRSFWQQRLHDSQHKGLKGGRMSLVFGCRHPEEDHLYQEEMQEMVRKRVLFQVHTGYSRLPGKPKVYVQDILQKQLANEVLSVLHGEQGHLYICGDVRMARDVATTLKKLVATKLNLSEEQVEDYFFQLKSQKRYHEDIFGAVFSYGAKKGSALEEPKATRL
# Outline: (§1)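 Full-length E. coli-expressed recombinant enzyme; NO formation followed kinetically at 401 nm via oxyhemoglobin capture at 30 °C in 100 mM Hepes pH 7.5 with NADPH, BH4, FAD, FMN, DTT; arginine 20 µM (iNOS) or 10 µM (nNOS, plus calmodulin and CaCl2). Screened at 100 and 10 μM; IC50 if >50% inhibition at 100 μM.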
# [2] = target: T2, oxygenase domain of iNOS (iNOSoxy) (Mus musculus, UniProt P29477); test: UV-visible difference spectroscopy titration of iNOSoxy; format: binding; conditions: UV/Vis difference spectroscopy, ± SD, three experiments; read-out: Apparent equilibrium constant Ks iNOSoxy
# T2 construct: the oxygenase domain of nNOS (nNOSoxy) and iNOS (iNOSoxy); made in house; host or cells: Escherichia coli
# T2 sequence (P29477 1-498 limits assumed): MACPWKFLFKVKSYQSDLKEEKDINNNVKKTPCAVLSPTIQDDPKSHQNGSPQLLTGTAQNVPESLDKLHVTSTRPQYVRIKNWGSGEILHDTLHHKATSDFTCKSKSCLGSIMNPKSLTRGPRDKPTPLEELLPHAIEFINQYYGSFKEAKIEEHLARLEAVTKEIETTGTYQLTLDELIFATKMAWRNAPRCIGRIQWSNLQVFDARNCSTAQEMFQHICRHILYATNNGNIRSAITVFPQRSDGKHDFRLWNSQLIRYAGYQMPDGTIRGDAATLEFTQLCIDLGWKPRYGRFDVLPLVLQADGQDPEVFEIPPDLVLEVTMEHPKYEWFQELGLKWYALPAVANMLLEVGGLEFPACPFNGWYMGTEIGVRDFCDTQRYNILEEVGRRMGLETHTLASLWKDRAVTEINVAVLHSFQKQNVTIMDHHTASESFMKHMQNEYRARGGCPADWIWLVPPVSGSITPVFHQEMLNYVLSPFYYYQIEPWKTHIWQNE
# Excerpt: We performed UV–visible difference spectroscopy to analyze the interaction mode of some inhibitors with the heme-active site of NOS [54]. We have studied the effects of dipeptide-like compounds 7, 17, 19, 23, and 27 and 1,2,4-oxadiazole 35 on the UV–visible spectra of the oxygenase domain of nNOS (nNOSoxy) and iNOS (iNOSoxy). As expected, when added stepwise to n- and iNOSoxy, all selected compounds elicited different spectra with a trough at ~425 nm and a peak at ~395 nm, similar to the substrate L-arginine. This profile is characteristic of type I interactions, meaning that they are bound in close proximity to the heme prosthetic group and shifted the spin state equilibrium to the pentacoordinated heme–Fe^III state. Double reverse plotting of the differences in absorbance between the peak at ~395 nm and valley at ~425 nm (ΔA395–425 nm) as a function of the concentration of the added compounds allowed calculating apparent binding constants (Ks) (Table 3). The reference inhibitor SEITU [55] tightly bound both NOS isoforms with high affinity but no selectivity. With the exception of the dipeptide-like 27 and the heterocyclic analog 35, which similarly interacted with both proteins, other compounds preferentially bound nNOSoxy over iNOSoxy with apparent affinities close to SEITU for this isoform.
# Full-length recombinant rat nNOS, mouse iNOS, bovine eNOS, and the heme domains of rat brain nNOS and mouse iNOS were expressed in Escherichia coli and purified as described previously.
# This study was performed as previously described.
# [3] = target: T3, rat nNOS (Rattus norvegicus, UniProt P29476); test: NOS inhibition, oxyhemoglobin (hemoglobin capture) test, recombinant nNOS; format: biochemical; conditions: dipeptide-like series; recombinant enzyme, 10 µM arginine, triplicate; NI = <50% inhibition at 100 μM
# T3 construct: Full-length recombinant rat nNOS, mouse iNOS, bovine eNOS; made in house; host or cells: Escherichia coli
# T3 sequence (P29476 whole entry): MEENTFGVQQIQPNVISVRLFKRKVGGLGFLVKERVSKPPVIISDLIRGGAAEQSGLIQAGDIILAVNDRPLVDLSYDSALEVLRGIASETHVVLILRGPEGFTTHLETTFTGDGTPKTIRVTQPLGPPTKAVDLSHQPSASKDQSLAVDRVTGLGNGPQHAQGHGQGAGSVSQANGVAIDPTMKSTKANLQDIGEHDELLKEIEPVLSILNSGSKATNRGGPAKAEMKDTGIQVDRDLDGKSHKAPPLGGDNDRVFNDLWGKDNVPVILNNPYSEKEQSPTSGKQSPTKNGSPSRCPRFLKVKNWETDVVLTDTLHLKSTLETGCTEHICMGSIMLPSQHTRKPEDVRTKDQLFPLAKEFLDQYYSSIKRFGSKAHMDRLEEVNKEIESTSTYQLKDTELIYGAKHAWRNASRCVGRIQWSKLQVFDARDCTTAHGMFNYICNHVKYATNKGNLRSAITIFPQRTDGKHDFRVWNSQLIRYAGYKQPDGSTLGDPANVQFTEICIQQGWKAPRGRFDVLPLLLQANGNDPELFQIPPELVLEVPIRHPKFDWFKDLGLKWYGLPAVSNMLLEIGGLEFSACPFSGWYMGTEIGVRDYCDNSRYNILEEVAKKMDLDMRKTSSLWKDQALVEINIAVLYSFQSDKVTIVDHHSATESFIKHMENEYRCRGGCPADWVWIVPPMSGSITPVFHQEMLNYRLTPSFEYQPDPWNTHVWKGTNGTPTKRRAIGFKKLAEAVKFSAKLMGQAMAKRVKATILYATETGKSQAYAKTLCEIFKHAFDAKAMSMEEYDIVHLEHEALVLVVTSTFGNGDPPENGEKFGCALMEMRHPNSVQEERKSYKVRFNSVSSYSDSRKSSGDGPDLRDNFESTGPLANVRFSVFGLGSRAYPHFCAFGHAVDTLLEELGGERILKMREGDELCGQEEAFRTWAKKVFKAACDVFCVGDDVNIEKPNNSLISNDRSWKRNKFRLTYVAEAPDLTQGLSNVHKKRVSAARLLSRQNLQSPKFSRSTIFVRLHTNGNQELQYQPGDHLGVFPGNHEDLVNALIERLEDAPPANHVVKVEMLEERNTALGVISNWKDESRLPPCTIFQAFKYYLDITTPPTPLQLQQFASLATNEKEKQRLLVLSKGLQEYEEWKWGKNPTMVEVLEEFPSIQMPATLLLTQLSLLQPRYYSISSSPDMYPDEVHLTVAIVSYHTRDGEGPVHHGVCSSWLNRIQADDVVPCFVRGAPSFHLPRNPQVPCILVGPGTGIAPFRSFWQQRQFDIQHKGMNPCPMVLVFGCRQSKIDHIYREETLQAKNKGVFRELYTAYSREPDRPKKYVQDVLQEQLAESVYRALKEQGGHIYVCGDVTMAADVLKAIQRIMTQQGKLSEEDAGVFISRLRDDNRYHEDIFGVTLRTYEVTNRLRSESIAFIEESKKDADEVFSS
# Outline: as §1
IC50 [1] [µM],Kd [2] [µM],IC50 [3] [µM],inhibition at 100 µM ([1]; read-out: IC50 (μM) iNOS (Mouse)) [%],SMILES
73.4,406 ± 97,17.5,,CCSC(=N)NCCC[C@H](N)C(=O)N[C@H]1CCCN(Cc2ccccc2)C1 [Compound 7]
12.9,36.4 ± 4.6,5,,CCSC(=N)NCCC[C@H](N)C(=O)N[C@H]1CCCN(Cc2ccc(Cl)c(C(F)(F)F)c2)C1 [Compound 17]
,57.9 ± 8,9.5,< 50,CCSC(=N)NCCC[C@H](N)C(=O)N[C@H]1CCCN(Cc2cccc(-c3cccc(C(=O)O)c3)c2)C1 [Compound 27]
